The values below come from US20120003303A1, “ORAL ENTERIC ANTIDEPRESSANT FORMULATION” (CeNeRx Biopharma, Inc, priority 2009, published 2012).

One may read the Tmax as the time at which the peak concentration occurs.

Molecules are shown by their SMILES. Where two headings read alike, the source gives them in different places.

Data set [1] is described as follows: human plasma pharmacokinetics of orally administered tyramine. The data set is classed as in vivo. The source says:
Such pharmaceutical formulations are manufactured in such a way that the product passes unchanged through the stomach of the patient, and dissolves and releases the active ingredient when it leaves the stomach and enters the middle and lower portions of the small intestine. Such formulations can be in tablet or pellet form, where the active ingredient is in the inner part of the tablet or pellet and is enclosed in a film or envelope, the “enteric coating,” which is insoluble in acid environments, such as the stomach, but is soluble in near-neutral environments such as the small intestine.

For a further data set, the target named is T1, MAO-B (Homo sapiens, UniProt P27338).
T1 sequence (P27338 1-520): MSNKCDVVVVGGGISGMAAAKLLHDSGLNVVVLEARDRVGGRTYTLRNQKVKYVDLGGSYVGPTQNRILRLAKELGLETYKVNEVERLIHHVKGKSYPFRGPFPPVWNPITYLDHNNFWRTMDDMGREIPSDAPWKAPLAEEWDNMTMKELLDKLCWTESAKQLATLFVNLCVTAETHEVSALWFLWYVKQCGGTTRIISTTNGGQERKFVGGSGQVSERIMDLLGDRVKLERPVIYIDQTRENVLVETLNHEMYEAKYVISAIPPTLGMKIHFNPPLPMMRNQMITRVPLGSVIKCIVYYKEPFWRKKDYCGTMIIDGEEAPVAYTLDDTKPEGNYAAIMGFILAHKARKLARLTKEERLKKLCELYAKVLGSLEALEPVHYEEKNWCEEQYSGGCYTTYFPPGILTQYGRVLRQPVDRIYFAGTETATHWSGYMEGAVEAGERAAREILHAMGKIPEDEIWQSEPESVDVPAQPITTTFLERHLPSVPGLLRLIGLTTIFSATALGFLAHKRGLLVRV
As to the kind of experiment: inhibitory action on MAO-B (statement, no method given). The data set is classed as biochemical.

In the case of `NCCc1ccc(O)cc1` [tyramine], the “time after dosing at which non-detectable levels observed” value in data set [1] (human plasma, tyramine with food in a capsule, oral dose of 200 mg) was 3 to 4 h. Also, the Tmax is no more than 1.25 h in data set [1] (human plasma, tyramine with food in a capsule, oral dose of 200 mg, read-out: Tmax); 1.25 h in data set [1] (human, plasma, oral, 200 mg, dietary tyramine, absorbed and metabolized in stomach, upper small intestine and liver, read-out: average Tmax).

As to `O=S1(=O)c2ccc(F)cc2Oc2cc(OCC(F)(F)F)ccc21` [CX157, 3-fluoro-7-(2,2,2-trifluoroethoxy)phenoxathiin 10,10-dioxide], the “inhibitory actions on MAO-B” value at MAO-B is on record as “devoid of inhibitory actions on MAO-B”.
